The text below walks through data of patent publication US8329416B2, “Stabilized standards for busulfan immunoassay” (Saladax Biomedical Inc., priority 2008, dated 2012).

The structures appear in SMILES notation. Like-named read-outs stand apart in the source and are kept apart here.

Series [1] relates to antibodies specific for busulfan. Conditions: antibodies from immunogens of formulae III-A and III-B; cited from earlier work.
Series [2] can be described thus: decomposition of busulfan standards in aqueous solution over time. To be noted: FIG. 1. It is filed as physicochemical. Here is the method: In FIG. 1 a plurality of aqueous solutions of busulfan having varying concentrations of 100 ng/ml, 600 ng/ml, and 1200 ng/ml are incubated at room temperature. […] At room temperature for 5 days, more than 60% of the busulfan is decomposed.

The conditions of series [3]: cited from earlier work.
The nature of series [4]: stability tests of amide of formula II standards in solution. It counts as physicochemical. To be noted: for time stable: solutions 590 ng/ml to 4720 ng/ml.
In a further series the test system is antibody to busulfan. Briefly: direct competitive ELISA for busulfan (busulfan-HRP conjugate, antibody-coated plate). It counts as binding. How it is done: For the purpose of determining amide of formula II equivalents to busulfan of formula I and assaying busulfan with the amide standards by Enzyme-Linked Immunosorbent Assay (ELISA) method, polystyrene microtiter plates optimized for protein binding and containing 96 well per plate were used. Each well was coated with an antibody to busulfan produced as described in U.S. Pat. No. 7,238,024 Example 7, by adding 100 μL of antibody at 7.5 μg/mL in 0.05M sodium bicarbonate, pH=9.6 and then were blocked with 400 μL of 5% sucrose, 0.2% sodium caseinate solution for 30 minutes at room temperature. After removal of the post-coat solution the plates dried at 37° C. overnight.
The cross-reactivity of the amide was determined in a direct competitive Enzyme-Linked Immunosorbent Assay (ELISA) for busulfan. This method for measuring busulfan concentrations was performed with the microtiter plates that were sensitized with busulfan antibody described in Example 3. The amide stock solution at 6 mg/mL DMF was serially diluted 5000 ng/mL and 500 ng/mL in a buffer comprising 0.02 M sodium phosphate, 0.15 M NaCl, 0.1% BSA, 0.01% Thimerosal, pH 7.2. To perform the assay 30 μL of busulfan standards from Example 1, and 30 μL of amide of formula II dilutions were pre-diluted in a 96-well plate by the addition of 180 μL of sample pre-dilution buffer consisting of 0.02 M sodium phosphate, 0.15 M NaCl, 0.5% Dextran Sulfate, 0.01% Thimerosal, pH 7.2. 50 μL of all prediluted samples were added to the antibody coated microtiter plate of Example 3. After addition of the samples 50 μL of a busulfan-HRP conjugate at 100 ng/mL in a buffer comprising to 0.02 M sodium phosphate, 0.15 M NaCl, 0.2% BSA, 0.1% ANS (8-anilino-1-naphthalene sulfonic acid), 15 ppm ProClin® Preservative 300 was added. During the following 10 minute incubation (R.T., with shaking) there is a competition between sample (busulfan or amide) and busulfan-HRP for binding with the antibody in the well. Following this incubation the wells of the plate were washed three times with 0.02 M TRIS, 0.9% NaCl, 0.5% polyethylene glycol sorbitan monooleate TWEEN® 80 and 0.001% Thimerosal, pH 7.8 to remove any material that was not bound. To detect the amount of busulfan-HRP bound to the busulfan antibody in the wells, 100 μL of TMB (TMB Liquid Substrate) a substrate for HRP was added. To develop a measurable color in the wells there was a 10 second incubation (R.T., with shaking). Following the incubation 50 μL of stop solution comprising 1.5% sodium fluoride in di H2O was added to each well to stop the color development and after 10 seconds of shaking the absorbance was determined at 650 nm with a 96-well plate reader. The amount of busulfan-HRP in a well was proportional to the absorbance measured and inversely proportional to the amount of busulfan of formulated or amide of formulated in the sample. The absorbance of the color in the wells containing busulfan was compared to that with no busulfan analyte and a standard curve was generated. […] The cross-reactivity was used to determine the concentration of amide necessary to produce a calibration curve equivalent to that of busulfan (Example 6).
Using the busulfan antibody plates (Example 3) in a direct competitive Enzyme-Linked Immunosorbent Assay (ELISA) for busulfan described in Example 4, the GC-MS verified busulfan calibrators (Example 1) were used to generate a curve from 75 ng/mL to 2000 ng/mL and the amide calibrators were read off this standard curve as unknown samples. […] The X axis represents the verified busulfan concentration and the Y axis is the amide standards expressed as busulfan equivalence factor (amide concentration value x 0.107=busulfan equivalence factor e.g. 1410 ng/mL amide x 0.107=150 ng/mL busulfan equivalence).

Series [5] has as its system antibodies specific for busulfan. Put plainly: busulfan immunoassay of U.S. Pat. No. 7,148,024. It counts as binding. To be noted: across the entire dose response curve. From the text:
In accordance with a preferred embodiment of this invention, a competitive assay is provided utilizing the reagents and procedure disclosed in U.S. Pat. No. 7,148,024, whose disclosure is incorporated by reference In this preferred procedure, the preferred procedure as set forth in U.S. Pat. No. 7,148,024, utilized in its method antibodies produced from conjugates of an immunogenic polyamine polymer with a compound of the formula III-A:
[drawing 4] • wherein A′ is lower alkylene or lower alkenylene; • X′, Y, X, p and z are as above or mixtures thereof.
The fact that known concentrations of the amide of formula II can be calibrated with known concentrations of busulfan by means of a calibration assay can be seen from FIG. 3. […] These measured results are plotted against their relative concentrations. […] The amount or concentration of busulfan can be determined from the measured amount or concentration standards containing the amide of formula II by multiplying the measured results obtained from these amide standards by previously determined calibration factor which in the case of FIG. 3 is 0.107. In this manner one obtains the amount or concentration of busulfan in the samples based on the measured results with respect to the amide.

For `O=S1(=O)CCC(O)C1` (centres unmarked) [tetrahydrothiophene-3-ol-1,1-dioxide], the “reaction or binding of the busulfan antibodies with blocking metabolites” value (“reaction or binding” below) in series [1] is on record as “do not substantially react with or bind to”.
In the case of `CS(=O)(=O)OCCCCOS(C)(=O)=O` [busulfan], the half-life in series [2] (aqueous solution, 37° C., aqueous solutions 100, 600, 1200 ng/ml) is 14 h. Moreover, the busulfan decomposed result in series [2] (room temperature for 5 days) and in series [3] (room temperature for 5 days) was “more than 60%” in each case. For the same molecule, in series [3] (4° C., calibrator matrix spiked with busulfan), the “decomposition of busulfan calibrator” value is “decomposes within a day”.
Consider `O=S1(=O)CCCC1` [tetramethylene sulfone], for which the “reaction or binding” value in series [1] is “do not substantially react with or bind to”.
As to `C1CCSC1` [tetrahydrothiophene], the “reaction or binding” value in series [1] is “do not substantially react with or bind to”.
With `CS(=O)(=O)NCCCCNS(C)(=O)=O` [amide of formula II], the time stable result in series [4] (4° C., FIG. 2) was “at least 4 weeks”; in series [4] (45° C., FIG. 2), “at least 4 weeks”. Further, the decomposition on storage entry in series [4] (stored at 4° C. and 45° C. for at least 4 weeks, FIG. 2) is “no decomposition”. The “storage of amide solutions without significant deterioration” value in series [4] (without any special precautions) is “more than one year”. The “calibration factor (busulfan equivalence factor)” value in the series with antibody to busulfan (FIG. 3, amide concentration x factor = busulfan equivalence) is 0.107. Further, the “busulfan calibrator concentration giving the same absorbance” value in the series on antibody to busulfan (amide at 705 ng/mL, FIG. 3) is listed as 75 ng/mL; in the series on antibody to busulfan (amide at 1410 ng/mL, FIG. 3), 150 ng/mL; with antibody to busulfan (amide at 2820 ng/mL, FIG. 3) it was 300 ng/mL; in the series on antibody to busulfan (amide at 5640 ng/mL, FIG. 3) it was 600 ng/mL; with antibody to busulfan (amide at 11280 ng/mL, FIG. 3), 200 ng/mL; with antibody to busulfan (amide at 18800 ng/mL, FIG. 3), 2000 ng/mL. The molecule also yielded a cross-reactivity with antibody to busulfan (recovery compared to busulfan standard, 5000 ng/mL amide) of 10.7%. Further, the “relative cross reactivity as compared to busulfan” value in series [5] amounted to 17.5%.
